Entries after “also recorded” stand apart in the source; their conditions may differ.
Assays:
NSC-34 cells = assay: LDH assay (cytotoxicity) in NSC-34 cells; type: cell-based; details: for toxicity independently of GR and PR treatment: no DRP
Source text: LDH Assay: The LDH assay is a colorimetric assay that measures cell toxicity and death. […] When cells lose membrane integrity, an enzyme found in living cells called lactate dehydrogenase (LDH) is released into the solution surrounding the dying cell. A form of programmed cell death, apoptosis, as well as other forms of cell death also ultimately lead to a cell's membrane being destroyed, resulting in a large release of LDH into the extracellular space. Thus, LDH is an excellent marker not only for necrosis, but for all instances of cell death. In an LDH assay, a sample of the solution surrounding the cell is isolated, and transferred to a plate containing an LDH reaction mixture. This reaction mixture contains a tetrazolium salt intermediate and other reaction constituents that, when exposed to LDH, convert the tetrazolium salt into a colored Formazan product. This Formazan product can be quantified spectrophotometrically. Greater absorbance readings correspond to more cell death.
One row on the top and bottom of the plate, and two columns on either side of the plate, were left without cells and contained culture medium only to minimize experimental well volume evaporation. After plating, cells were incubated for 24 h at 37° C., 5% CO2 prior to DRP and/or PRMT inhibitor addition. At time of DRP/PRMT inhibitor addition, desired doses of DRP for challenge and inhibitor for treatment were achieved by diluting aliquots of each stock in warm culture medium. During experiments where both PRMT inhibitors and DRPs were used, PRMT inhibitors were always applied to wells first, and followed by DRP application. […] Inhibitor toxicity controls were included as wells treated with the desired doses of drug for the experiment, but no DRP. DRP toxicity controls were included as wells only treated with the doses of DRP used for challenge. Once dosed, plates were incubated for 24 h at 37° C., 5% CO2 prior to running the WST-1 or LDH assay endpoints. Additional controls needed for each endpoint are specified in the “WST-1 Assay” and “LDH Assay” sections of these methods.
LDH Assay: Cells were plated and prepared using the steps described in the “Plating NSC-34 and Dosing with DRPs and PRMT Inhibitors” section of these methods. Other controls for this experiment included several sets of wells with only cells in culture medium (one triplicate designated for “untreated,” one triplicate designated for “lysed” positive control), and wells with culture medium only. An additional control added only to the transfer plate at time of testing was 5 μL LDH only. Testing was performed using colorimetric LDH-Cytotoxicity Assay Kit II (Abcam, Cambridge, MA, USA) per manufacturer's instructions. Final read at 450 nm was performed on a SpectraMax M3 Microplate Reader (Molecular Devices, San Jose, CA, USA). Data analysis included calculation of % LDH release using the following equation: […]
Experiments included three replicates per condition. Each experiment was repeated twice (executed three times total).
(§1) The following conditions were plated in triplicate.
Plates were incubated for 24 h at 37° C., 5% CO2. Cells were tested and data were analyzed by LDH assay.
Cells were plated in culture medium in 2 96-well plates at a density of 3.7×10^4 cells per well, and incubated overnight at 37° C., 5% CO2.
as §1
Cells were plated in culture medium in 2 96-well plates at a density of 3.7×10^4 cells per well, and incubated overnight at 37° C., 5% CO2. […]
The following conditions were plated in triplicate. […]

[1] = system: asymmetrical arginine methylation of NSC-34 cells; assay: Cellular asymmetric arginine methylation (800/700 fluorescence readout) in NSC-34 cells; type: cell-based, Mouse; details: 24 hour treatment
Procedure: On Day 0, NSC-34 Cells were plated in 48 wells of a 96 well plate, and CHO cells were plated in the other 48 wells of the same 96-well plate. NSC-34 cells were plated in DMEM/High glucose media. CHO cells were plated in Ham's F-12K (Kaighn's) Medium. Both cell lines were incubated overnight to reach approximately 50% confluency.
On Day 1, 24 wells of the NSC-34 cells and 24 wells of the CHO cells were treated with the following concentrations of MS023: 1 μM, 3 μM, 6 μM, 10 μM, 30 μM, and 60 μM. The cells were then incubated overnight.
On Day 2, 18 wells of the untreated NSC-34 cells and 18 wells of the untreated CHO cells were treated with the same concentrations of MS023 as those on Day 1. This left 6 wells of each cell line that never received MS023. Once MS023 was added, the cells were incubated overnight.
On Day 3, all media in the 96-well plate was removed and the cells were fixed with 3.7% Paraformaldehyde (PFA). Cells were then washed and permeabilized with 1×PBS/0.1% Triton X-100.
After removing the PBS/Triton wash, Odyssey Blocking Buffer (LI-COR, 927-40100) was applied to all wells and the plate sat at room temperature with moderate shaking for 90 minutes. After 90 minutes, the blocking buffer was removed and the cells were treated with a 1:500 dilution of the Anti-Asymmetric Di-Methyl Arginine Motif primary antibody (Cell Signaling Technology, #13522). Incubation with the primary antibody continued overnight at 4 degrees Celsius with no shaking.
On Day 4, the primary antibody solution was removed from the plate, and the cells were washed with 1×PBS/0.1% Tween 20. After washing, cells were given a secondary antibody mixture containing a 1:1000 dilution of IRDye 800 CW Anti-Rabbit antibody (LI-COR, 926-32211) and a 1:500 dilution of Cell Tag 700 Stain (LI-COR, 926-41090). The secondary antibody mixture remained on cells for 60 minutes with gentle shaking and protected from light.
(§2) After 60 minutes, the secondary antibody mixture was removed and the cells were again washed with 1×PBS/0.1% Tween 20. All wash buffer was then removed, and the plate was gently patted dry to remove excess solution. The plate was then read on the LI-COR Odyssey Classic Imaging System which provides results based on fluorescence. In this experiment, fluorescence occurred as a result of cellular, asymmetric arginine methylation. MS023 was given to cells for either 24 or 48 hours, with expectation for it to reduce cellular, asymmetric arginine methylation. Cell number per well was accounted for using the Cell Tag 700 Stain, which fluorescently labels total protein levels in a cell. To this effect, fluorescence from asymmetrical arginine methylation per well (800) was divided by fluorescence from the total protein level per well (700) to produce an outcome of 800/700.
On Day 1, 24 wells of the NSC-34 cells and 24 wells of the CHO cells were treated with the following concentrations of MS049: 0.2 μM, 1 μM, 2 μM, 10 μM, 20 μM, and 100 μM. The cells were then incubated overnight.
On Day 2, 18 wells of the untreated NSC-34 cells and 18 wells of the untreated CHO cells were treated with the same concentrations of MS049 as those on Day 1. This left 6 wells of each cell line that never received MS049. Once MS049 was added, the cells were incubated overnight.
as §2, with “MS049” for “MS023”, “To this effect, fluorescence from asymmetrical arginine methylation per well (800) was divided by fluorescence from the total protein level per well (700) to produce an outcome of 800/700.” left out

Q: Which “dose dependence of abrogation of GR15-induced cytotoxicity” value (NSC-34 cells; 3 μM GR15, 24 h, dose range of the example) does the source give for CNCCN1CCC(OCc2ccccc2)CC1 [MS049] here?
A: The value was “dose-dependently abrogated”.

Q: And the “abrogation of GR-induced toxicity” value (NSC-34 cells; 3 μM GR15, 24 h, doses 0.2, 1, 2, 20 and 100 μM)?
A: The value was “partially abrogated”.

Q: What about the “abrogation of GR-induced toxicity” value (NSC-34 cells; 3 μM GR15, 24 h, doses 2 and 10 μM) of the same compound?
A: Its value is “completely abrogated”.

Q: What about the “abrogation of GR15-induced cytotoxicity” value (NSC-34 cells; 3 μM GR15, doses 1 and 20 μM) of the same compound?
A: The value was “partially abrogated”.

Q: What about the “dose dependence of abrogation of PR15-induced cytotoxicity” value (NSC-34 cells; 3 μM PR15, 24 h, dose range of the example) of the same compound?
A: The value was “dose-dependently abrogated”.

Q: And the “abrogation of PR-induced toxicity” value (NSC-34 cells; 3 μM PR15, 24 h, doses 0.2, 1, 2, 20 and 100 μM)?
A: Its value is “partially abrogated”.

Q: And the “abrogation of PR-induced toxicity” value (NSC-34 cells; 3 μM PR15, 24 h, doses 2 and 10 μM)?
A: The value was “completely abrogated”.

Q: And the “abrogation of PR15-induced cytotoxicity” value (NSC-34 cells; 3 μM PR15, doses 1 and 20 μM)?
A: The value was “partially abrogated”.

Q: What about the “toxicity independently of GR and PR treatment” value (NSC-34 cells; doses 100 and 20 μM) of the same compound?
A: Its value is “did cause significant toxicity; also recorded: did cause significant cytotoxicity”.

Q: What about the “toxicity independently of GR and PR treatment” value (NSC-34 cells; other doses tested (0.2, 1, 2, 10 μM)) of the same compound?
A: The value was “not at other doses tested”.

Q: What about the “decrease of asymmetrical arginine methylation” value ([1]; 1 μM, vs untreated cells) of the same compound?
A: Its value is “approximately 17%”.

Q: And the “decrease of asymmetrical arginine methylation” value ([1]; 100 μM)?
A: Its value is about 39%.

Reference: patent US12318365B2, “Inhibition of dipeptide repeat proteins” (ALS Therapy Development Institute, priority 2019, dated 2025)
